This is an account of results in patent US9365583B2, “Substituted pyrazoles and uses thereof” (Genentech, Inc., priority 2013, dated 2016).

Where only a bound is given, the exact number is not on record here.

A word on the Ki: it is a dissociation constant, usually derived from enzyme kinetics or from competition with a known ligand. Read a low Ki as higher affinity.

The test has as its target T1, N-terminally GST-tagged DLK (catalytic domain amino acid 1-520) (Homo sapiens, UniProt Q12852).
T1 construct: N-terminally GST-tagged DLK (catalytic domain amino acid 1-520); purchased Carna Bioscience
T1 sequence (Q12852 1-520): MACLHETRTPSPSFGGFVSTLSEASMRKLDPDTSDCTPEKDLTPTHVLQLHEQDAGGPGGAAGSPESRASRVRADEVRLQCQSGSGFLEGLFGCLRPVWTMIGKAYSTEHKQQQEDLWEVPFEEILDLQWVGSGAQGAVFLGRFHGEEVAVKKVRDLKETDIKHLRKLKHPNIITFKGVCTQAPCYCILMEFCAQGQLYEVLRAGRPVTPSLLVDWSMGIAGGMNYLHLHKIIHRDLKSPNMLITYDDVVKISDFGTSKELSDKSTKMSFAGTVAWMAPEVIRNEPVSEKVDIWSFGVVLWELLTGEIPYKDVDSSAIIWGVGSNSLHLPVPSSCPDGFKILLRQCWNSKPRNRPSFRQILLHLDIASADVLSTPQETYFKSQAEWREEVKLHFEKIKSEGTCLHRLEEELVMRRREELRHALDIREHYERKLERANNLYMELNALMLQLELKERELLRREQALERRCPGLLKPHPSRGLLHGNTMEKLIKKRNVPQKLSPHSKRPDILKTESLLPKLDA
As to the kind of experiment: DLK TR-FRET inhibition assay. The format is biochemical. The conditions noted are these: 5 nM GST-DLK, 40 nM HIS-MKK4 K131M substrate, 30 μM ATP, 60 minutes at ambient temperature. The method, boiled down: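 5 nM GST-DLK (aa 1-520), 40 nM HIS-MKK4 K131M and 30 μM ATP reacted 60 min at ambient temperature in HEPES pH 7.5 buffer with 10 mM MgCl2, compound 1:3 serially diluted from 20 uM. TR-FRET detection of phospho-MKK4 used Eu-cryptate anti-phospho-MKK4 plus D2 anti-HIS, read after 3 h (665/615 nm).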
A general note: TR-FRET usually uses a lanthanide donor and a delayed reading to cut background.
With `CC(C)n1nc(-c2cnc(N)c(OC(F)F)c2)cc1[C@H]1[C@@H]2C[C@H](N3CCN(C)CC3)C[C@@H]21` [compound 198, 3-(difluoromethoxy)-5-(1-isopropyl-5-((1R,3r,5S,6r)-3-(4-methyl-piperazin-1-yl)bicyclo[3.1.0]hexan-6-yl)-1H-pyrazol-3-yl) pyridin-2-amine], the Ki amounted to 2.1 nM.

For `CC(C)n1nc(-c2cnc(N)c(OC(F)F)c2)cc1[C@H]1[C@@H]2C[C@@H](N3CCO[C@@H](C)C3)C[C@@H]21` [compound 75, 3-(difluoromethoxy)-5-(1-isopropyl-5-((1R,3s,5S,6S)-3-((S)-2-methylmorpholino)bicyclo[3.1.0]hexan-6-yl)-1H-pyrazol-3-yl) pyridin-2-amine], the Ki turned out to be 0.74 nM.

“5-(1-isopropyl-5-((1R,3r,5S,6R)- 3-((R)-2-methylmorpholino) bicyclo[3.1.0]hexan-6-yl)-1H- pyrazol-3-yl)-3-(trifluoromethyl) pyridin-2-amine [compound 2]”: the Ki was 2.06 nM.

With `CC(C)n1nc(-c2cnc(N)c(OC(F)F)c2)cc1[C@H]1[C@@H]2CC(C)(O)C[C@@H]21` (stereo partly drawn) [compound 105, (1R,5S,6r)-6-(3-(6-amino-5-(difluoro-methoxy)pyridin-3-yl)-1-isopropyl-1H-pyrazol-5-yl)-3-methyl-bicyclo[3.1.0]hexan-3-ol], the Ki worked out at 18.3 nM.

For the compound `Nc1ncc(-c2cc([C@@H]3[C@@H]4C[C@H](N5CCOCC5)C[C@@H]43)n(CC3CC3)n2)cc1OC(F)(F)F` [compound 283, 5-(1-(cyclopropylmethyl)-5-((1R,3r,5S,6s)-3-morpholinobicyclo [3.1.0]hexan-6-yl)-1H-pyrazol-3-yl)-3-(tritluoromethoxy) pyridin-2-amine], the affinity, expressed as Ki, was 209 nM.

Regarding `CC(C)n1nc(-c2cnc(N)c(C(F)(F)F)c2)cc1[C@H]1[C@@H]2CC(N3CC4COCC4C3)C[C@@H]21` (single isomer, unassigned) [compound 270], the Ki was found to be 2.8 nM.

In turn, `CO[C@H]1CCCN([C@@H]2C[C@@H]3[C@H](C2)[C@H]3c2cc(-c3cnc(N)c(C(F)(F)F)c3)nn2C(C)C)C1` [compound 290, 5-(1-isopropyl-5-((1R,3s,5S,6S)-3-((S)-3-methoxypiperidin-1-yl)bicyclo[3.1.0]hexan-6-yl)-1H-pyrazol-3-yl)-3-(trifluoromethyl) pyridin-2-amine] returned a Ki of 7.7 nM.

Turning to `CC(C)n1nc(-c2cnc(N)c(C(F)(F)F)c2)cc1[C@H]1[C@@H]2C[C@@H](N3CCCN(C)CC3)C[C@@H]21` [compound 210, 5-(1-isopropyl-5-((1R,3s,5S,6r)-3-(4-methyl-1,4-diazepan-1-yl)bicyclo[3.1.0]hexan-6-yl)-1H-pyrazol-3-yl)-3-(trifluoromethyl) pyridin-2-amine], the affinity, expressed as Ki, was 2 nM. This Ki is about 3.9-fold lower than that of the compound before.

Compound `CC(C)n1nc(-c2cnc(N)c(OC(F)(F)F)c2)cc1[C@H]1[C@@H]2C[C@@H](N3CC4(CN(C)CCO4)C3)C[C@@H]21` [compound 219, 5-(1-isopropyl-5-((1R,3s,5S,6r)-3-(8-methyl-5-oxa-2,8-diazaspiro [3.5]nonan-2-yl)bicyclo[3.1.0]hexan-6-yl)-1H-pyrazol-3-yl)-3-(trifluoromethoxy)pyridin-2-amine] yielded a Ki of 2.2 nM.

As to `CO[C@@H]1CCN([C@H]2C[C@@H]3[C@H](C2)[C@H]3c2cc(-c3cnc(N)c(C(F)(F)F)c3)nn2C(C)C)C1` [compound 185, 5-(1-isopropyl-5-((1R,3r,5S,6R)-3-((R)-3-methoxypyrrolidin-1-yl)bicyclo[3.1.0]hexan-6-yl)-1H-pyrazol-3-yl)-3-(trifluoromethyl) pyridin-2-amine], the inhibition constant Ki amounted to 1.6 nM. This Ki and that of the compound before are within 1.5-fold of each other.

The compound `CO[C@@H]1CCN([C@@H]2C[C@@H]3[C@H](C2)[C@H]3c2cc(-c3cnc(N)c(OC(F)F)c3)nn2C(C)C)C1` [compound 194, 3-(difluoromethoxy)-5-(1-isopropyl-5-((1R,3s,5S,6R)-3-((R)-3-methoxypyrrolidin-1-yl)bicyclo [3.1.0]hcxan-6-yl)-1 H-pyrazol-3-yl)pyridin-2-amine] registered a Ki of 2 nM.

As to `Nc1ncc(-c2cc([C@H]3[C@@H]4C[C@@H](N5CCOCC5)C[C@@H]43)n(CC(F)F)n2)cc1OC(F)F` [compound 160, 5-(1-(2,2-difluoroethyl)-5-((1R,3s,5S,6r)-3-morpholinobicyclo [3.1.0]hexan-6-yl)-1H-pyrazol-3-yl)-3-(difluoromethoxy) pyridin-2-amine], affinity was put at a Ki of 2.4 nM.

As for `CCN1CCN([C@@H]2C[C@@H]3[C@H](C2)[C@H]3c2cc(-c3cnc(N)c(OC(F)(F)F)c3)nn2C(C)C)CC1` [compound 15, 5-(5-((1R,3s,5S,6r)-3-(4-ethylpiperazin-1-yl)bicyclo[3.1.0]hexan-6-yl)-1-isopropyl-1H-pyrazol-3-yl)-3-(trifluoromethoxy) pyridin-2-amine], the Ki amounted to 3.58 nM.

`CC(C)n1nc(-c2cnc(N)c(OC(F)F)c2)cc1C1[C@H]2CC(N3CCOCC(F)C3)C[C@@H]12` (single isomer, unassigned) [compound 172] yielded a Ki of 4.2 nM. This Ki and that of the compound before are within 1.5-fold of each other.

Turning to `CC(C)n1nc(-c2cnc3ccn([C@@H](C)c4ccccn4)c3c2)cc1[C@H]1[C@@H]2C[C@@H](N3CCOCC3)C[C@@H]21` [compound 24, 4-((1R,3R,5S,6r)-6-(1-isopropyl-3-(1-((S)-1-(pyridin-2-yl)ethyl)-1H-pyrrolo[3,2-b]pyridin-6-yl)-1H-pyrazol-5-yl)bicyclo[3.1.0]hexan-3-yl)morpholine], the Ki was 0.34 nM. Compared with the last compound, the Ki is about 12-fold lower.

Take `CC(C)n1nc(-c2cnc(N)c(C(F)(F)F)c2)cc1[C@H]1[C@@H]2C[C@H](N)C[C@@H]21` [compound 269, 5-(5-((1R,3r,5S,6r)-3-amino-bicyclo[3.1.0]hexan-6-yl)-1-isopropyl-1H-pyrazol-3-yl)-3-(trifluoro-methyl)pyridin-2-amine]: the Ki came to 4.1 nM.

As for `Nc1ncc(-c2cc([C@H]3[C@@H]4C[C@@H](N5CCOCC5)C[C@@H]43)nn2C2CCC2)cc1OC(F)F` [compound 133, 5-(1-cyclobutyl-3-((1R,3s,5S,6r)-3-morpholinobicyclo[3.1.0]hexan-6-yl)-1H-pyrazol-5-yl)-3-(difluoromethoxy)pyridin-2-amine], the Ki was at least 321 nM.

In turn, `CC(C)n1nc(-c2cnc(N)c(OC(F)(F)F)c2)cc1[C@H]1[C@@H]2C[C@H](N3CCOC[C@@H]3C)C[C@@H]21` [compound 97, 5-(1-isopropyl-5-((1R,3r,5S,6S)-3-((S)-3-methylmorpholino)bicyclo[3.1.0]hexan-6-yl)-1H-pyrazol-3-yl)-3-(trifluoromethoxy) pyridin-2-amine] showed a Ki of 4.12 nM. In other words, the single-digit nanomolar range.

In turn, `CC(C)n1nc(-c2cnc(N)c(OC(F)F)c2)cc1[C@H]1[C@@H]2C[C@@H](N3CC4CC(C3)O4)C[C@@H]21` [compound 278, 5-(5-((1R,3s,5S,6r)-3-(6-oxa-3-azabicyclo[3.1.1]heptan-3-yl)bicyclo[3.1.0]hexan-6-yl)-1-isopropyl-1H-pyrazol-3-yl)-3-(difluoromethoxy)pyridin-2-amine] had a Ki of 1.4 nM.

As for `CO[C@H]1CCN([C@@H]2C[C@@H]3[C@H](C2)[C@H]3c2cc(-c3cnc(N)c(OC(F)F)c3)nn2CC2CC2)C1` [compound 159, 5-(1-(cyclopropylmethyl)-5-((1R,3s,5S,6S)-3-((S)-3-methoxy-pyrrolidin-l-yl)bicyclo[3.1.0]hexan-6-yl)-1H-pyrazol-3-yl)-3-(difluoromethoxy)pyridin-2-amine], the affinity, expressed as Ki, was 1.9 nM.

Consider `CC(C)n1nc(-c2cnc(N)c(C(F)(F)F)c2)cc1[C@@H]1[C@@H]2C[C@@H](O)C[C@@H]21` [compound 122, (1R,3s,5S,6s)-6-(3-(6-amino-5-(trifluoromethyl)pyridin-3-yl)-1-isopropyl-1H-pyrazol-5-yl) bicyclo[3.1.0]hexan-3-ol], for which the Ki is over 321 nM.

The compound `CC(C)n1nc(-c2cnc(N)c(OC(F)F)c2)cc1[C@H]1[C@@H]2C[C@@H](N3CC(F)(F)C3)C[C@@H]21` [compound 42, 5-(5-((1R,3s,5S,6r)-3-(3,3-difluoroazetidin-1-yl)bicyclo[3.1.0]hexan-6-yl)-1-isopropyl-1H-pyrazol-3-yl)-3-(difluoromethoxy) pyridin-2-amine] showed a Ki of 4.53 nM.

On to `CO[C@@H]1C[C@@H]2[C@H](C1)[C@H]2c1cc(-c2cnc(N)c(OC(F)F)c2)nn1C(C)C` [compound 195, 3-(difluoromethoxy)-5-(1-isopropyl-5-((1R,3s,5S,6r)-3-methoxy-bicyclo[3.1.0]hexan-6-yl)-1H-pyrazol-3-yl)pyridin-2-amine], for which the Ki amounted to 6.4 nM.

`CC(C)n1nc(-c2cnc(N)c(C(F)(F)F)c2)cc1[C@H]1[C@@H]2C[C@H](N(C)C3COC3)C[C@@H]21` [compound 49, 5-(1-isopropyl-5-((1R,3r,5S,6r)-3-(methyl(oxetan-3-yl)amino)bicyclo[3.1.0]hexan-6-yl)-1H-pyrazol-3-yl)-3-(trifluoromethyl) pyridin-2-amine] returned a Ki of 4.2 nM.
